Test results from US8323656B2, “Antigen determinant of rheumatoid arthritis-specific autoantibody and use thereof” (priority 2007, dated 2012).

System: RA-specific antibodies (4 anti-CCP2-positive sera)
Test: Indirect (inhibition) ELISA: cross-reactivity of analytes with RA-specific antibodies, immobilized CCP2 as capture antigen
Format: binding, human
Design: Cross-reactivity of antibodies with the named analyte: concentration or dose not given beside the values
Conditions: for Cross-reactivity (%) of RA-specific antibody, modified α-amino acid: alkylation + acetylation: acetylated amino acid methyl ester of the amino acid named; for Cross-reactivity (%) of RA-specific antibody, modified α-amino acid: alkylation + acetylation / Cross-reactivity (%) of RA-specific antibody, modified α-amino acid: acetylation / Cross-reactivity (%) of RA-specific antibody, modified α-amino acid: alkylation: 0 = less than 1%; for Cross-reactivity (%) of RA-specific antibody, modified α-amino acid: acetylation: acetylated derivative of the amino acid named; for Cross-reactivity (%) of RA-specific antibody, modified α-amino acid: alkylation: methyl esterified (Me) derivative of the amino acid named; for Cross-reactivity (%) of RA-specific antibody, α-amino acid: unmodified α-amino acid, 0 = cross-reactivity less than 1%; for Cross-reactivity of antibodies with the named analyte: the analyte itself is named; for Inhibition of antibody binding to the immobilized CCP2: FIG. 1 and 2, analyte at 50 mM, 4 sera, result in words
Description: A complete set of 21 amino acids and their derivatives were used as analytes to determine if any analyte inhibited the action of the detector antibody in binding to the capture antigen. Determination was made by observation at the single AA level through a series of moving windows of different derivatization. Following this procedure ensures that no antigenic elements of the epitope are missed as long as the possible AA derivatives are available. The analysis began in the fluid phase, wherein initially, the detector antibody was incubated with each of the analytes. After overnight incubation at 4° C., 100 μl of analyte preadsorbed detector antibody per well were added into 96-well microplate which immobilized CCP2 on the surface, and was incubated for 1 hour at room temperature with shaking. […] The reaction was stopped by adding 100 μl of 0.5 M H2SO4 per well and the results were estimated at A450 nm.
The concept of indirect ELISA was based upon an inhibition test between an unknown amount of analyte and a known amount of immobilized antigen for a limited number of detector antibody binding-sites. If the contents of detector antibody and immobilized antigen are kept constant, the distribution of detector antibody between immobilized antigen bound detector antibody and analyte bound detector antibody is dependent upon the amount of sample analyte. The mass of immobilized antigen bound detector antibody is inversely proportional to the amount of analyte bound detector antibody.
(§1) As described in FIG. 1, Amino Acid Profiles for the Antigenic Determinant, ELISA was carried out with sera from Euro-diagnostica (serum 1) and from three patients (serum 2, 3, and 4) with RA to CCP2 positive at various concentrations of different amino acids. […] The horizontal line at 100% represents the control percent binding of the CCP2 to the antibody.
as §1, with “2, Acetylamino” for “1, Amino”, “acetylamino” for “amino”
as §1, with “3, Alkylamino” for “1, Amino”, “alkylamino” for “amino”
as §1, with “4, Acetylamino” for “1, Amino”, “Acid Methyl Ester” for “Acid”, “acetylamino acid methyl esters.” for “amino acids.”

Inhibition of antibody binding to the immobilized CCP2 | SMILES | Cross-reactivity (%) of RA-specific antibody, modified α-amino acid: alkylation + acetylation [%] | Cross-reactivity (%) of RA-specific antibody, modified α-amino acid: acetylation [%] | Cross-reactivity (%) of RA-specific antibody, modified α-amino acid: alkylation | Cross-reactivity (%) of RA-specific antibody, α-amino acid [%] | Cross-reactivity of antibodies with the named analyte
 | C[C@H](N)C(=O)O [Alanine] | 0 | 0 | ^Me0% | 0 | 
 | COC(=O)[C@@H](N)CCCN=C(N)N [Arg-Me] |  |  |  |  | 6%
 | N=C(N)NCCC[C@H](N)C(=O)O [Arginine] | 13 | 6 | ^Me5% | 0 | zero
 | NC(=O)C[C@H](N)C(=O)O [Asparagine] | 0 | 0 | ^Me0% | 0 | 
 | N[C@@H](CC(=O)O)C(=O)O [Aspartic acid] | 0 | 0 | ^Me0% | 0 | 
 | CCCCOC(=O)[C@@H](N)CCCNC(N)=O [Cit-Be] |  |  |  |  | 124%
 | CCOC(=O)C(N)CCCNC(N)=O (stereo not shown) [Cit-Ee] |  |  |  |  | 72%
 | COC(=O)C(N)CCCNC(N)=O (stereo not shown) [Cit-Me] |  |  |  |  | 81%
 | CCCOC(=O)C(N)CCCNC(N)=O (stereo not shown) [Cit-Pe] |  |  |  |  | 115%
 | COC(=O)[C@@H](N)CS [Cys-Me] |  |  |  |  | 48%
limited capability to inhibit | N[C@@H](CS)C(=O)O [Cysteine] | 57 | 48 | ^Me50% | 0 | 0%
 | N[C@@H](CCC(=O)O)C(=O)O [Glutamic acid] | 0 | 0 | ^Me0% | 0 | 
 | NC(=O)CC[C@H](N)C(=O)O [Glutamine] | 0 | 0 | ^Me0% | 0 | 
 | NCC(=O)O [Glycine] | 0 | 0 | ^Me0% | 0 | 
 | N[C@@H](Cc1c[nH]cn1)C(=O)O [Histidine] | 0 | 0 | ^Me0% | 0 | 
 | CC[C@H](C)[C@H](N)C(=O)O [Isoleucine] | 0 | 0 | ^Me0% | 0 | 
 | CC(C)C[C@H](N)C(=O)O [Leucine] | 0 | 0 | ^Me0% | 0 | 
 | NCCCC[C@H](N)C(=O)O [Lysine] | 0 | 0 | ^Me0% | 0 | 
 | COC(=O)C(N)CCSC (stereo not shown) [Met-Me] |  |  |  |  | 0%

Inhibition of antibody binding to the immobilized CCP2 | SMILES | Cross-reactivity (%) of RA-specific antibody, modified α-amino acid: alkylation + acetylation [%] | Cross-reactivity (%) of RA-specific antibody, modified α-amino acid: acetylation [%] | Cross-reactivity (%) of RA-specific antibody, modified α-amino acid: alkylation | Cross-reactivity (%) of RA-specific antibody, α-amino acid [%] | Cross-reactivity of antibodies with the named analyte
 | CSCC[C@H](N)C(=O)O [Methionine] | 0 | 0 | ^Me0% | 0 | 0%
 | N[C@@H](Cc1ccccc1)C(=O)O [Phenylalanine] | 0 | 0 | ^Me0% | 0 | 
 | O=C(O)[C@@H]1CCCN1 [Proline] | 0 | 0 | ^Me0% | 0 | 
 | COC(=O)[C@@H](N)CO [Ser-Me] |  |  |  |  | 0%
 | N[C@@H](CO)C(=O)O [Serine] | 0 | 0 | ^Me0% | 0 | 0%
 | C[C@@H](O)[C@H](N)C(=O)O [Threonine] | 0 | 0 | ^Me0% | 0 | 
 | N[C@@H](Cc1c[nH]c2ccccc12)C(=O)O [Tryptophan] | 0 | 0 | ^Me0% | 0 | 
 | N[C@@H](Cc1ccc(O)cc1)C(=O)O [Tyrosine] | 0 | 0 | ^Me0% | 0 | 
 | CC(C)[C@H](N)C(=O)O [Valanine] | 0 | 0 | ^Me0% | 0 | 
 | COC(=O)[C@H](CCCNC(=N)N)NC(C)=O [acetyl-Arg-Me] |  |  |  |  | 13%
limited inhibition | CC(=O)N[C@@H](CCCN=C(N)N)C(=O)O [acetyl-Arg] |  |  |  |  | 5%
 | COC(=O)C(CCCNC(N)=O)NC(C)=O (stereo not shown) [acetyl-Cit-Me] |  |  |  |  | 100%
 | COC(=O)[C@H](CS)NC(C)=O [acetyl-Cys-Me] |  |  |  |  | 57%
strong inhibition | CC(=O)N[C@@H](CS)C(=O)O [acetyl-Cys] |  |  |  |  | 50%
 | COC(=O)[C@H](CCSC)NC(C)=O [acetyl-Met-Me] |  |  |  |  | 0%
 | CSCCC(NC(C)=O)C(=O)O (stereo not shown) [acetyl-Met] |  |  |  |  | 0%
 | COC(=O)[C@H](CO)NC(C)=O [acetyl-Ser-Me] |  |  |  |  | 0%
 | CC(=O)N[C@@H](CO)C(=O)O [acetyl-Ser] |  |  |  |  | 0%

SMILES | Inhibition of antibody binding to the immobilized CCP2 | Cross-reactivity (%) of RA-specific antibody, modified α-amino acid: alkylation + acetylation [%] | Cross-reactivity (%) of RA-specific antibody, modified α-amino acid: acetylation [%] | Cross-reactivity (%) of RA-specific antibody, modified α-amino acid: alkylation | Cross-reactivity (%) of RA-specific antibody, α-amino acid [%] | Cross-reactivity of antibodies with the named analyte
CC(=O)N[C@@H](CCCNC(N)=O)C(=O)O [acetyl-Cit] | strong inhibition |  |  |  |  | 74%
